Measured values reported in ChEMBL document CHEMBL3098069, “Azide-alkyne cycloaddition affording enzymatically tunable bisubstrate based inhibitors of histone acetyltransferase PCAF” (Bioorg Med Chem Lett, 2014).
pIC50: −log10 of the molar value. The source made the active and inactive calls. The calls are words filed in the database; no cut-off is given here. Square brackets hold non-standard residues; d marks the D form. Peptide text beside a SMILES is read from it. Lys(N3) = [N-]=[N+]=NCCCC[C@H](N)C(=O)O; pS = N[C@@H](COP(=O)(O)O)C(=O)O

What was measured:
[1] = molecular target: T1, Histone acetyltransferase KAT2B (Homo sapiens, UniProt Q92831); assay: Inhibition of PCAF (unknown origin) using histone H3 derived peptide as substrate at 10^-6 to 10^-3 M after 20 mins by fluorescence assay
Target sequence in this assay (Q92831 whole entry, looked up): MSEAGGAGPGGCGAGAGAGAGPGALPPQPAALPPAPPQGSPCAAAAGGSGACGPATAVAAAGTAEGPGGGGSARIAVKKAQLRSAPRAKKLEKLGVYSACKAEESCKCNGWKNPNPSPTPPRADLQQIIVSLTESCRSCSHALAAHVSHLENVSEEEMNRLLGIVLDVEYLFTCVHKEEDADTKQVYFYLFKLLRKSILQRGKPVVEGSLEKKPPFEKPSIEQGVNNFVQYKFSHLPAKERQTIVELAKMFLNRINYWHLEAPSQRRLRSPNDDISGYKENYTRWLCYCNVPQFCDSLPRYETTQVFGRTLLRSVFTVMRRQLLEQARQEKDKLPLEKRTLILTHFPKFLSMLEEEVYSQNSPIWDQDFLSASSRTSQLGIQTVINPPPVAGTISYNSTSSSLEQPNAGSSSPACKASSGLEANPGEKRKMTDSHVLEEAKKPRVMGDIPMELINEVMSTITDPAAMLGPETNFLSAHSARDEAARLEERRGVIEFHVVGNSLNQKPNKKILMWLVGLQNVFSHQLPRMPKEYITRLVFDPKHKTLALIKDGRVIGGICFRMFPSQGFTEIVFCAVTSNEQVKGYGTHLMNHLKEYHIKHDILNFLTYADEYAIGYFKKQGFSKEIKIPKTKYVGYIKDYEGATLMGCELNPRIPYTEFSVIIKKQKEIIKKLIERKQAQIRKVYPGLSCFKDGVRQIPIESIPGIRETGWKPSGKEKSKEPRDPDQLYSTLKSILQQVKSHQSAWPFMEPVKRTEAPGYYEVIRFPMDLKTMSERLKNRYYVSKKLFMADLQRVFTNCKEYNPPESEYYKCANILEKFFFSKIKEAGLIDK

[2] = Drug degradation in NEB buffer at 1 mg after 10 to 120 mins by RP-HPLC analysis; assay type: physicochemical
[3] = molecular target: Serine/threonine-protein kinase pim-1 (Homo sapiens, UniProt P11309); assay: Drug degradation in NEB buffer assessed as PIM1 kinase (unknown origin)-mediated H3-pSer-CoA formation at 1 mg after 60 mins by RP-HPLC analysis; assay type: ADME; settings: 1 h
[4] = molecular target: T1, Histone acetyltransferase KAT2B; assay: Competitive inhibition of PCAF (unknown origin) using histone H3 derived peptide as substrate after 20 mins by fluorescence assay
Target sequence in this assay (Q92831 whole entry): as the sequence (Q92831 whole entry, looked up) above

[5] = molecular target: T1, Histone acetyltransferase KAT2B; assay: Inhibition of PCAF (unknown origin) using histone H3 derived peptide as substrate after 20 mins by fluorescence assay
Target sequence in this assay (Q92831 whole entry): as the sequence (Q92831 whole entry, looked up) above

[6] = Drug degradation in NEB buffer assessed as Protein phosphatase 1 (unknown origin)-mediated H3-Ser-CoA formation at 1 mg after 30 mins by RP-HPLC analysis; assay type: ADME, Homo sapiens; settings: 0.5 h

Serine/threonine-protein kinase pim-1, sequence (P11309 whole entry): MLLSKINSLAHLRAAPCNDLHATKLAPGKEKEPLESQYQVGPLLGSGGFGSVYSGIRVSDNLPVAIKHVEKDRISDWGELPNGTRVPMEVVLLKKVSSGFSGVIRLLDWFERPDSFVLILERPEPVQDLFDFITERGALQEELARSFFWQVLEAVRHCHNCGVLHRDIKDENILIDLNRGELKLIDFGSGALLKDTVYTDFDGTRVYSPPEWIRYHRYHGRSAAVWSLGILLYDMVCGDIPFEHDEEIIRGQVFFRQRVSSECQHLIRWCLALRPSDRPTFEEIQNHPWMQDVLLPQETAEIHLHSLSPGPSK

Structure (SMILES) | inhibition [1] | Stability [2] | Drug degradation [3] | pIC50 [4] | pIC50 [5] | Drug degradation [6]
CC(=O)N[C@@H](C)C(=O)N[C@@H](CCCNC(=N)N)C(=O)N[C@@H](CCCCN)C(=O)N[C@@H](CO)C(=O)N[C@H](C(=O)NCC(=O)NCC(=O)N[C@@H](CCCCN=[N+]=[N-])C(=O)N[C@@H](C)C(=O)N1CCC[C@H]1C(=O)N[C@@H](CCCNC(=N)N)C(=O)N[C@@H](CCCCN)C(N)=O)[C@@H](C)O (Ac-ARKSTGG[Lys(N3)]APRK-NH2) | inactive | – | – | – | – | –
C#CCSCCNC(=O)CCNC(=O)[C@@H](O)C(C)(C)COP(=O)(O)OP(=O)(O)OC[C@H]1O[C@@H](n2cnc3c(N)ncnc32)[C@H](O)[C@@H]1OP(=O)(O)O | inactive | – | – | – | – | –
CC(=O)N[C@@H](C)C(=O)N[C@@H](CCCNC(=N)N)C(=O)N[C@@H](CCCCN)C(=O)N[C@@H](CO)C(=O)N[C@H](C(=O)NCC(=O)NCC(=O)N[C@@H](CCCCn1cc(CSCCNC(=O)CCNC(=O)[C@@H](O)C(C)(C)COP(=O)(O)OP(=O)(O)OC[C@H]2O[C@@H](n3cnc4c(N)ncnc43)[C@H](O)[C@@H]2OP(=O)(O)O)nn1)C(=O)N[C@@H](C)C(=O)N1CCC[C@H]1C(=O)N[C@@H](CCCNC(=N)N)C(=O)N[C@@H](CCCCN)C(N)=O)[C@@H](C)O | – | Unstable | Active | 3.93 | 5.55 | –
CC(=O)N[C@@H](C)C(=O)N[C@@H](CCCNC(=N)N)C(=O)N[C@@H](CCCCN)C(=O)N[C@@H](COP(=O)(O)O)C(=O)N[C@H](C(=O)NCC(=O)NCC(=O)N[C@@H](CCCCN=[N+]=[N-])C(=O)N[C@@H](C)C(=O)N1CCC[C@H]1C(=O)N[C@@H](CCCNC(=N)N)C(=O)N[C@@H](CCCCN)C(N)=O)[C@@H](C)O (Ac-ARK[pS]TGG[Lys(N3)]APRK-NH2) | inactive | – | – | – | – | –
CC(=O)N[C@@H](C)C(=O)N[C@@H](CCCNC(=N)N)C(=O)N[C@@H](CCCCN)C(=O)N[C@@H](COP(=O)(O)O)C(=O)N[C@H](C(=O)NCC(=O)NCC(=O)N[C@@H](CCCCn1cc(CSCCNC(=O)CCNC(=O)[C@@H](O)C(C)(C)COP(=O)(O)OP(=O)(O)OC[C@H]2O[C@@H](n3cnc4c(N)ncnc43)[C@H](O)[C@@H]2OP(=O)(O)O)nn1)C(=O)N[C@@H](C)C(=O)N1CCC[C@H]1C(=O)N[C@@H](CCCNC(=N)N)C(=O)N[C@@H](CCCCN)C(N)=O)[C@@H](C)O | – | Unstable | – | 4.48 | 5.77 | Active
